Test results as given in patent US12533353B2, “Methods of treatment of cancer comprising CDC7 inhibitors” (CARNA BIOSCIENCES, INC., priority 2018, dated 2026).
Where two headings read alike, the source gives them in different places.

Experiments:
MV-4-11 tumor xenografts = assay: Rat xenograft model of AML (MV-4-11), SRA141 monotherapy; format: in vivo; design: complete regressions (tumor volume <13.5 mm3 for 3 consecutive measurements): unit not given here; conditions: for tumor growth inhibition (TGI): 5 days of 7-day cycle, 4 weeks, Day 42; for median tumor volume: in mm³ (unit assumed)
Protocol: The efficacy of a Cdc7 inhibitor (compound SRA141) as a monotherapy was tested in a rat xenograft model of Acute Myelogenous Leukemia (AML) (FIG. 2). Female rnu/rnu rats were inoculated subcutaneously with 1×10^7 MV-4-11 human acute myelogenous leukemia cells. MV-4-11 cells were injected in a totally volume of 0.1 mL PBS in 1:1 Matrigel®. Rats began SRA141 treatment when tumors reached an average size of 300-400 mm^3. Rats bearing MV-4-11 tumor xenografts were orally administered (i) vehicle control (0.5% CMC-Na/1% Poloxamer 188) or (ii) SRA141 at 75 mg/kg BID for 5 consecutive days of a 7-day cycle for 4 weeks or (iii) SRA141 at 150 mg/kg QD for 5 consecutive days of a 7-day cycle for 4 weeks (n=10 per treatment group). Tumor volume measurements were taken biweekly and body weight measurements were taken biweekly to day 15, then daily to end of study. Tumor growth inhibition was calculated on Day 42, the final day of the study.

[1] = test system: Colo-205 colon cancer cells; assay: Sub-G1 fraction by propidium iodide flow cytometry; format: cell-based, human; conditions: 1 μM to 10 μM, 48 h incubation
Protocol: (§1) The differential cytotoxic activity of SRA141 in Colo-205 colon cancer cells versus normal human dermal fibroblast cells (NHDF) was assessed at drug concentrations ranging from 0.03 to 33.3 μM (48 h incubation). Following treatment, cells labelled with propidium iodide were analyzed by flow cytometry to determine the percentage of dying cells found in sub-G1 fractions as a consequence of apoptosis-mediated DNA fragmentation. […] In contrast, fewer than 10% of the normal cells were apoptotic as determined by sub-G1 fraction, consistent with published reports showing minimal cytotoxicity of non-transformed cells following Cdc7 inhibition (Montagnoli, 2004). Thus, these findings support a potential therapeutic index for SRA141 between tumor and non-transformed tissues.

[2] = test system: normal human dermal fibroblast cells (NHDF); assay: Sub-G1 fraction by propidium iodide flow cytometry; format: cell-based; conditions: 0.03 to 33.3 μM, 48 h incubation
Protocol: as §1

AML-blast progenitors = assay: 3D growth in methylcellulose matrix, 14 days; format: cell-based
Protocol: (§2) The anti-proliferative activity of SRA141 (0.3-5 μM) was also evaluated in additional 3D growth studies conducted in a methylcellulose growth matrix using normal human myeloid (n=3) and AML-blast progenitors incubated for 14 days.

[3] = test system: normal human myeloid progenitors (normal bone marrow); assay: 3D growth in methylcellulose matrix, 14 days; format: cell-based
Protocol: as §2

[4] = test system: Colo-205 tumor xenografts; assay: Colo-205 colorectal xenograft study (mouse); format: in vivo; conditions: for tumor growth inhibition: 17 days, Day 16
Protocol: Female BALB/c mice bearing Colo-205 tumor xenografts were orally administered (i) vehicle (0.2 M HCl/0.5% MC400) or (ii) SRA141 30 or 60 mg/kg BID for 17 days or (iii) SRA141 120 mg/kg QD for 17 days (n=8 per treatment group). Tumor growth inhibition was calculated on Day 16, the final day of the study.

SW620 tumor xenografts = assay: SW620 colorectal xenograft study (mouse); format: in vivo; conditions: for tumor growth inhibition: Day 21
Protocol: Female BALB/c mice bearing SW620 tumor xenografts were orally administered (i) vehicle (0.1 M HCl/0.5% MC400) or (ii) SRA141 60 mg/kg three times a day (TID) for 4 consecutive days followed by a 2-day dosing holiday for 21 days or (iii) SRA141 120 mg/kg QD for 21 days (n=10 per treatment group). Tumor growth inhibition was calculated on Day 21, the final day of the study. All vehicle control animals remained on study on Day 21.

[5] = In vitro plasma protein binding; format: in vitro ADME; conditions: human
[6] = In vitro metabolism in hepatocytes; format: in vitro ADME
Description: Eleven metabolites were identified across species, of which 6 occurred in the human matrix. One human-specific metabolite was identified, but only at trace levels. The mouse, rat and dog hepatocyte metabolite profiles contained all the other human metabolites.

OATP1B1 = OATP1B1 (Homo sapiens, UniProt Q9Y6L6); assay: In vitro transporter inhibition; format: in vitro ADME
[7] = Absolute oral bioavailability; conditions: monkey, in vivo, free base suspension, read-out: absolute oral bioavailability (% F)

Chain of OATP1B1 (Q9Y6L6 whole entry): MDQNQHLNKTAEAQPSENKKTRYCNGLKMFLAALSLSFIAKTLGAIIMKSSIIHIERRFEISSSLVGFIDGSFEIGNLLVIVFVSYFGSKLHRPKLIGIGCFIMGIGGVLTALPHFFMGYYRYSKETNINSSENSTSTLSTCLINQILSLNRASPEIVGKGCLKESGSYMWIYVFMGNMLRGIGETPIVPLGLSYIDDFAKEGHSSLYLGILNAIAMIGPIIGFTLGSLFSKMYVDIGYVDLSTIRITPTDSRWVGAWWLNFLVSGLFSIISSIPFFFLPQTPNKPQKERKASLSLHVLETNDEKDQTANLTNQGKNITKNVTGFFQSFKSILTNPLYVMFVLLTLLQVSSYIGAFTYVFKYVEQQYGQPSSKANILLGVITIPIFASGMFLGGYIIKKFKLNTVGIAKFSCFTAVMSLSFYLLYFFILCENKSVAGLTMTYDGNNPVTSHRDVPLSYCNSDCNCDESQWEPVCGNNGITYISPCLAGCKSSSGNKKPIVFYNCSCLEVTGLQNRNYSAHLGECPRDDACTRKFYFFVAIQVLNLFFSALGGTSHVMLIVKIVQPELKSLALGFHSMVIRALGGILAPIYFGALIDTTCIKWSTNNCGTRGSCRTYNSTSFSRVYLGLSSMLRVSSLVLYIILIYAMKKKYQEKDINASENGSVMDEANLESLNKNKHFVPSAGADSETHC

CCOC(=O)C1=C(NN2CCN(CC(F)(F)F)CC2)O/C(=C\c2c[nH]c3ncccc23)C1=O [SRA141]
complete regressions (tumor volume <13.5 mm3 for 3 consecutive measurements) (MV-4-11 tumor xenografts; 75 mg/kg BID): 1
partial regressions (tumor volume <50% of initial volume for 3 consecutive measurements) (MV-4-11 tumor xenografts; 75 mg/kg BID): 3
tumor growth inhibition (TGI) (MV-4-11 tumor xenografts; 75 mg/kg BID): 86.1%
median tumor volume (MV-4-11 tumor xenografts; 75 mg/kg group (n=8)): 1838
partial regressions (MV-4-11 tumor xenografts; 150 mg/kg QD): 2
tumor growth inhibition (TGI) (MV-4-11 tumor xenografts; 150 mg/kg QD): 86.7%
median tumor volume (MV-4-11 tumor xenografts; 150 mg/kg group (n=9)): 1764
tolerability (MV-4-11 tumor xenografts; all treatments): well tolerated with no significant body weight loss
percentage of dying cells in sub-G1 fraction [1]: ≤ 62%
percentage of apoptotic cells by sub-G1 fraction [2]: < 10%
primary AML samples responding with a Therapeutic Index [(Primary AML IC50)÷(BMNC control IC50)] (AML-blast progenitors; 9 primary AML samples): 5 out of 9
IC50 (AML-blast progenitors; AML810 censored, read-out: mean IC50, AML samples): ~160 nM
IC50 (AML-blast progenitors; AML-blast progenitor 180, read-out: IC50): 337 nM
IC50 (AML-blast progenitors; AML-blast progenitor 190, read-out: IC50): 73 nM
IC50 (AML-blast progenitors; AML-blast progenitor 200, read-out: IC50): 119 nM
IC50 (AML-blast progenitors; AML-blast progenitor 250, read-out: IC50): 159 nM
IC50 (AML-blast progenitors; AML-blast progenitor 260, read-out: IC50): 140 nM
IC50 (AML-blast progenitors; AML-blast progenitor 717, read-out: IC50): 118 nM
IC50 (AML-blast progenitors; AML-blast progenitor 810 (sample censored), read-out: IC50): 831 nM
IC50 (AML-blast progenitors; AML-blast progenitor 915, read-out: IC50): 177 nM
IC50 (AML-blast progenitors; AML-blast progenitor 917, read-out: IC50): 202 nM
IC50 (AML-blast progenitors; with AML 810, read-out: Mean AML-blast progenitor IC50 (with AML 810)): 240 ± 234 nM
IC50 (AML-blast progenitors; without AML 810, read-out: Mean AML-blast progenitor IC50 (without AML 810)): 166 ± 80 nM
IC50 ([3]; Normal bone marrow 111, read-out: IC50): 165 nM
IC50 ([3]; Normal bone marrow 525 (first line), read-out: IC50): 375 nM
IC50 ([3]; Normal bone marrow 525 (second line), read-out: IC50): 212 nM
IC50 ([3]; mean of 3 samples, read-out: Mean normal bone marrow IC50): 251 ± 110 nM
IC50 ([3]; read-out: mean IC50, normal bone marrow preparations): 250 nM
tumor growth inhibition ([4]; 30 mg/kg BID): 15%
tumor growth inhibition ([4]; 60 mg/kg BID): 58%
tumor growth inhibition ([4]; 120 mg/kg QD): 37%
tolerability ([4]; all treatments, dosing suspended for some mice for >15% body weight loss): All treatments were tolerated
mice with maximum body weight loss greater than 20% (SW620 tumor xenografts; 60 mg/kg TID): Four of 10
tumor growth inhibition (SW620 tumor xenografts; 60 mg/kg TID, 4 days on/2 days off): 78%
mice meeting the 20% weight loss threshold (SW620 tumor xenografts; 120 mg/kg QD): None
tumor growth inhibition (SW620 tumor xenografts; 120 mg/kg QD): 73%
fraction unbound [5]: < 0.1
metabolic stability ([6]; dog hepatocytes): favorable metabolic stability
metabolic stability ([6]; rat hepatocytes): favorable metabolic stability
inhibition at 10 µM (OATP1B1): > 50%
bioavailability [7]: 1 to 33%
